Reference: PubChem BioAssay (NCI)
“And” between values parts separate entries of the source, which are not always exact repeats. Equal entries are not always repeated.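 GI50 is the concentration that inhibits growth by half. TGI marks complete inhibition of growth.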

Experiments:
Experiment in all cases: DTP human tumour cell line panel, 384-well format
[1] = tested on: T-47D breast
[2] = tested on: SK-OV-3 ovarian
[3] = tested on: TK-10 renal
[4] = tested on: HOP-62 NSCLC
[5] = tested on: UACC-62 melanoma
[6] = tested on: U251 glioblastoma
[7] = tested on: NCI-H522 lung
[8] = tested on: K-562 leukemia
[9] = tested on: IGROV1 ovarian
[10] = tested on: SK-MEL-28 melanoma
[11] = tested on: SNB-19 CNS
[12] = tested on: HCC-2998 colon
[13] = tested on: NCI-H23 lung
[14] = tested on: MDA-MB-231 breast
[15] = tested on: ACHN renal
[16] = tested on: NCI-H460 NSCLC
[17] = tested on: MDA-MB-468 breast
[18] = tested on: CCRF-CEM leukemia
[19] = tested on: SNB-75 CNS
[20] = tested on: M14 melanoma
[21] = tested on: RPMI-8226 leukemia
[22] = tested on: SF-295 CNS
[23] = tested on: DU-145 prostate
[24] = tested on: HCT-15 colon
[25] = tested on: OVCAR-3 ovarian
[26] = tested on: CAKI-1 renal
[27] = tested on: 786-0 renal
[28] = tested on: SW-620 colon
[29] = tested on: A498 renal
[30] = tested on: RXF 393 renal
[31] = tested on: COLO 205 colon
[32] = tested on: A549 NSCLC
[33] = tested on: HS 578T breast
[34] = tested on: MALME-3M melanoma
[35] = tested on: UACC-257 melanoma
[36] = tested on: SR leukemia
[37] = tested on: HOP-92 NSCLC
[38] = tested on: SN12C renal
[39] = tested on: NCI/ADR-RES ovarian
[40] = tested on: BT-549 breast
[41] = tested on: PC-3 prostate
[42] = tested on: OVCAR-8 ovarian
[43] = tested on: KM12 colon
[44] = tested on: SF-539 CNS
[45] = tested on: OVCAR-4 ovarian
[46] = tested on: LOX IMVI melanoma
[47] = tested on: EKVX NSCLC
[48] = tested on: SK-MEL-2 melanoma
[49] = tested on: MOLT-4 leukemia
[50] = tested on: OVCAR-5 ovarian
[51] = tested on: UO-31 renal
[52] = tested on: NCI-H322M lung
[53] = tested on: SF-268 CNS
[54] = tested on: HCT-116 colon
[55] = tested on: MDA-MB-435 melanoma
[56] = tested on: HT29 colon
[57] = tested on: HL-60(TB) leukemia
[58] = tested on: SK-MEL-5 melanoma
[59] = tested on: NCI-H226 lung
[60] = tested on: MCF7 breast

For O=S(=O)(NCCNC/C=C/c1ccc(Br)cc1)c1cccc2cnccc12, the GI50 [1] was 2.78 µM and 4.36 µM, the TGI [1] was 13.3 µM and 16.8 µM and the GI50 [2] was 10.4 µM and 10.9 µM. The TGI [2] was 22.2 µM and 22.9 µM, the GI50 [3] was 10.4 µM and 11.3 µM and the TGI [3] was 22.2 µM and 23.5 µM. The GI50 [4] was 11.8 µM and 14.2 µM, the TGI [4] was 24.2 µM and 27.3 µM and the GI50 [5] was 0.814 µM and 3.2 µM. For the same compound, the TGI [5] was 6.43 µM and 10.8 µM, the GI50 [6] was 12.3 µM and 12.5 µM and the TGI [6] was 24.9 µM and 25.2 µM. For the same compound, the GI50 [7] was 12.1 µM and 13.7 µM, the TGI [7] was 24.6 µM and 26.6 µM and the GI50 [8] was 1.88 µM and 3.3 µM. The TGI [8] was 3.88 µM and 10.6 µM, the GI50 [9] was 11.1 µM and the TGI [9] was 23.3 µM. For the same compound, the GI50 [10] was 1.88 µM and 4.09 µM, the TGI [10] was 15.6 µM and 14 µM and the GI50 [11] was 17 µM and 16.1 µM. For the same compound, the TGI [11] was 30.8 µM and 29.7 µM, the GI50 [12] was 2.15 µM and 2.09 µM and the TGI [12] was 3.82 µM and 3.91 µM. For the same compound, the GI50 [13] was 6.06 µM and 10 µM, the TGI [13] was 20.3 µM and 21.6 µM and the GI50 [14] was 11.5 µM and 10.9 µM. For the same compound, the TGI [14] was 23.8 µM and 22.9 µM, the GI50 [15] was 11.7 µM and 13.5 µM and the TGI [15] was 24 µM and 26.4 µM. The GI50 [16] was 4.63 µM and 4.23 µM, the TGI [16] was 15.9 µM and 14.5 µM and the GI50 [17] was 3.44 µM and 3.33 µM. The TGI [17] was 9.73 µM and 12.7 µM, the GI50 [18] was 3.81 µM and 5.3 µM and the TGI [18] was 11.4 µM and 16.8 µM. For the same compound, the GI50 [19] was 10.3 µM and 10.8 µM, the TGI [19] was 22 µM and 22.7 µM and the TGI [20] was 3.48 µM and 18.4 µM. The GI50 [21] was 0.815 µM and 3.15 µM, the TGI [21] was 5.43 µM and 11.4 µM and the GI50 [22] was 15.4 µM and 14.7 µM. The TGI [22] was 28.8 µM and 27.9 µM, the GI50 [23] was 14.5 µM and 13.8 µM and the TGI [23] was 27.8 µM and 26.9 µM. For the same compound, the GI50 [24] was 13.2 µM and 10.1 µM, the TGI [24] was 26.1 µM and 21.9 µM and the GI50 [25] was 11.3 µM and 14.7 µM. For the same compound, the TGI [25] was 23.4 µM and 28 µM, the GI50 [26] was 7.31 µM and 7.09 µM and the TGI [26] was 20.1 µM and 19.8 µM. The GI50 [27] was 7.52 µM and 11.2 µM, the TGI [27] was 20.1 µM and 23.3 µM and the GI50 [28] was 14 µM and 14.8 µM. The TGI [28] was 27.1 µM and 28.2 µM, the GI50 [29] was 5.06 µM and 10.3 µM and the TGI [29] was 19.6 µM and 22.1 µM. For the same compound, the GI50 [30] was 1.08 µM and 5.38 µM, the TGI [30] was 8.71 µM and 18 µM and the TGI [31] was 2.6 µM and 16.1 µM. The GI50 [32] was 14 µM, the TGI [32] was 27.1 µM and the GI50 [33] was 4.89 µM and 8.58 µM. For the same compound, the TGI [33] was 16.5 µM and 20.7 µM, the GI50 [34] was 0.391 µM and 2.09 µM and the TGI [34] was 1.62 µM and 4.15 µM. The GI50 [35] was 2.2 µM and 2.34 µM, the TGI [35] was 4.51 µM and 5.87 µM and the GI50 [36] was 0.34 µM and 3.27 µM. For the same compound, the TGI [36] was 1.15 µM and 5.05 µM, the GI50 [37] was 10.7 µM and 10.8 µM and the TGI [37] was 22.6 µM and 22.7 µM. The GI50 [38] was 13.4 µM and 13.1 µM, the TGI [38] was 26.3 µM and 25.8 µM and the GI50 [39] was 13.2 µM and 14.6 µM. The TGI [39] was 26.1 µM and 27.9 µM, the GI50 [40] was 3.57 µM and 6.51 µM and the TGI [40] was 11.8 µM and 19.2 µM. The GI50 [41] was 3.6 µM and 6.95 µM, the TGI [41] was 18.6 µM and 19.8 µM and the GI50 [42] was 12.2 µM and 11.8 µM. For the same compound, the TGI [42] was 24.7 µM and 24.2 µM, the GI50 [43] was 4.08 µM and 6.28 µM and the TGI [43] was 19 µM and 18.3 µM. For the same compound, the GI50 [44] was 5.11 µM and 10.2 µM, the TGI [44] was 19.7 µM and 21.9 µM and the GI50 [45] was 12.8 µM and 13.8 µM. The TGI [45] was 25.5 µM and 26.8 µM, the GI50 [46] was 11.6 µM and 10.2 µM and the TGI [46] was 23.9 µM and 22 µM. The GI50 [47] was 6.07 µM and 10 µM, the TGI [47] was 18.9 µM and 21.7 µM and the GI50 [48] was 2.74 µM. The TGI [48] was 6.86 µM, the GI50 [49] was 2.47 µM and 3.65 µM and the TGI [49] was 6.41 µM and 12.7 µM. The GI50 [50] was 12.7 µM, the TGI [50] was 25.4 µM and the GI50 [51] was 12.5 µM and 13.1 µM. The TGI [51] was 25.1 µM and 26 µM, the GI50 [52] was 10.2 µM and 10.7 µM and the TGI [52] was 21.9 µM and 22.6 µM. The GI50 [53] was 12 µM and 12.9 µM, the TGI [53] was 24.4 µM and 25.6 µM and the GI50 [54] was 5.55 µM and 5.73 µM. For the same compound, the TGI [54] was 17.9 µM and 17.3 µM, the GI50 [55] was 13 µM and 13.2 µM and the TGI [55] was 25.7 µM and 26 µM. The GI50 [56] was 3.17 µM and 4.08 µM, the TGI [56] was 9.44 µM and 13.5 µM and the GI50 [57] was 1.21 µM and 3.62 µM. For the same compound, the TGI [57] was 10.8 µM and 12.6 µM, the GI50 [58] was 2.89 µM and 3.31 µM and the TGI [58] was 10.1 µM and 12.7 µM. The GI50 [59] was 11.2 µM and 15.4 µM, the TGI [59] was 23.4 µM and 28.8 µM and the GI50 [60] was 3.15 µM and 5.52 µM. For the same compound, the TGI [60] was 18.8 µM and 18.2 µM.
